According to patent US6329378A, “Hydrazone, hydrazine and thiosemicarbazone derivatives as antifungal agents” (Anadys Pharmaceuticals, Inc., priority 2000, dated 2001):
In brackets after ≈: the same amount, converted by molar mass.

Assays:
[1] = tested on: C. albicans; assay: MIC, broth microdilution (NCCLS M27-A), C. albicans; format: cell-based, Candida albicans; conditions: 48 hours, C. albicans ATCC 10231; for MIC C. albicans: 35° C.; for MIC: Candida albicans, ATCC10231, 35° C.
Protocol: (§1) Compounds of the invention were tested for antifungal susceptibility using broth microdilution assay established by the National Committee for Clinical Laboratory Standards, in NCCLS Document M27-A, which is hereby incorporated by reference. Minimum inhibitory concentrations (MICs) and minimum fungicidal concentrations (MFCs) were measured.
(§2) Yeasts (Saccharomyces cerevisiae and Candida albicans) are cultured on SDA plates in a 35° C. incubator. Strains on SDA plates are stored at 4° C. and used as working stock cultures.
(§3) Inoculum for susceptibility testing is prepared from fresh 24 hour cultures. 5-10 colonies are scraped from the plate and suspended in three milliliters of sterile 0.85% saline (8.5 g/liter NaCl). The cell density of the solution is determined by measuring the absorbance in a spectrophotometer (Shimadzu UV-1201S UV-VIS Spectrophotometer) set at 600 nm. An absorbance value between 0.1 and 0.4 is required for an accurate reading.
(§4) For Candida albicans strains ATCC 10231, 1.0 OD600 unit is approximately 10^7 cells per ml. For Saccharomyces cerevisiae strain CTY552, 1.0 OD600 unit is slightly less than 10^7 cells per ml. Cell suspensions are diluted with the appropriate medium (typically RPMI-1640) to OD600 =0.0003 for Candida and OD600 =0.0004 for Saccharomyces. The diluted suspension contains approximately 3×10^3 cells per ml (this is a 2×concentration inoculum). Two 100 μl aliquots of this dilution are spread on SDA plates and incubated at 35° C. for 1-2 days to determine the precise number of colony forming units. An acceptable range for the inoculum (2×) is 1-5×10^3 cfu/ml (100-500 for 100 μl). Following two-fold dilution of the inoculum with compound, the final concentration of cells will be 0.5-2.5×10^3 per ml. The inoculum is kept at 4° C. and used within a few hours.
(§5) Stock solutions and concentrations tested will vary from compound to compound. In general, though, stock solutions of 12.8 mg/ml in DMSO (Sigma D-8779) are prepared. This will allow for a 128 μg/ml starting test concentration containing 1% DMSO. Stock solutions are stored at -20° C. and dilutions for antifungal testing are freshly prepared before each assay.
(§6) Stock solutions of Amphotericin B and Itraconazole are prepared at 1.6 mg/ml in DMSO. Amphotericin B is sold as a powder that is approximately 80% Amphotericin B. Stock solutions are made accordingly (2.0 mg of powder for a 1 ml solution of 1.6 mg/ml Amphotericin B).
(§7) Both of these (control and test compounds) represent 1:50 dilutions. For an assay with three fungal strains, 40 microliters of a stock solution are diluted to 2.0 ml with room temperature medium.
(§8) Antifungal susceptibility tests are setup in polystyrene, 96-well, flat bottom plates (Costar 9017). To every well in columns 2-12 is added 100 microliters of media. An electronic multichannel (12) pipettor with no tip on channel one is used. To every well in column one is added 200 microliters of diluted compound (32 μg/ml for Amphotericin B and Itraconazole controls, 256 μg/ml for test compounds, 100-fold dilution for natural product extracts). A manual multichannel (8) pipettor is then used to set up a series of 2-fold dilutions. 100 microliters is removed from each well of column one and mixed with 100 microliters in column 2. This is done successively (column two to column three etc.) to produce a set of 11 serial dilutions (column 12 is a drug free control).
(§9) To every well in two rows, 100 μl of inoculum (2×) of a single strain is added. To the final two rows on the plate (G & H), only media is added. Addition of inoculum is best accomplished using an electronic multichannel (12) pipettor. This setup (see below) creates a starting cell density of […] (100-500 per well) and drug concentration ranging from 16 μg/ml to […] for controls (Amphotericin B and Itraconazole), 128 μg/ml to 0.125 μg/ml for pure test compounds, and 200 to 204, 800-fold dilutions for natural product extracts.

[2] = tested on: C. albicans; assay: Minimum fungicidal concentration (MFC), C. albicans; format: cell-based, Candida albicans; conditions: viability on SDA plate, 35° C.; for MFC: Candida albicans
Protocol: as §1, §2, §3, §4, §5, §6
(§10) Stock solutions of control compounds (1.6 mg/ml, Amphotericin B or Itraconazole) are initially diluted in medium to a concentration of 32 μg/ml while stock solutions of test compounds (typically 12.8 mg/ml) are diluted to 256 μg/ml. Both of these (control and test compounds) represent 1:50 dilutions. For an assay with three fungal strains, 40 microliters of a stock solution are diluted to 2.0 ml with room temperature medium.
as §8
(§11) To every well in two rows, 100 μl of inoculum (2×) of a single strain is added. To the final two rows on the plate (G & H), only media is added. Addition of inoculum is best accomplished using an electronic multichannel (12) pipettor. […]

[3] = tested on: A. Nidulans; assay: MIC, broth microdilution (NCCLS M27-A), A. nidulans; format: cell-based; conditions: 35° C., 48 hours; for MIC: Aspergillus nidulans
Protocol: as §1
Filamentous fungi (Aspergillus spp.) is cultured on PDA plates in a 35° C. incubator. Inoculum of Aspergillus for susceptibility testing is prepared from plates incubated at 35° C. for 5 days. Colonies are covered with 5 ml of sterile 0.85% saline (8.5 g/liter NaCl) and gently rocked for 10-15 minutes. To dislodge the conidia, an automatic pipettor is used to gently wash over the colonies. The saline solution is removed from the plate and the heavy particles are allowed to settle for 3-5 minutes. The upper suspension is removed and vortexed for 15 sec. The turbidity of the solution is determined by measuring the absorbance in a spectrophotometer (Shimadzu UV-1201S UV-VIS Spectrophotometer) set at 600 nm. An absorbance value between 0.1 and 0.4 is required for an accurate reading.
The cell suspension is diluted with the appropriate medium (typically RPMI-1640) to OD600 =0.0004. The final suspension should contain approximately 3×10^3 cfu per ml (this is a 2×concentrationinoculum). Two 100 μl aliquots of this dilution are spread on SDA plates and incubated at 35° C. for 1-2 days to determine the precise number of colony forming units. An acceptable range for the inoculum (2×) is 1-5×10^3 cfu/ml (100-500 for 100 μl). Following two-fold dilution of the inoculum with compound, the final concentration of cells will be 0.5-2.5×10^3 per ml. The inoculum is kept at 4° C. and used within a few hours.
as §5, §6, §7, §8, §9

[4] = tested on: S. serevisiae; assay: MIC, broth microdilution (NCCLS M27-A), S. cerevisiae; format: cell-based, Saccharomyces cerevisiae; conditions: for MIC S. serevisiae: broth microdilution, 35° C., 48 hours, S. cerevisiae CTY552; for MIC: Saccharomyces cerevisiae, 48 h, read-out: MIC S. serevisiae
Protocol: as §1, §2, §3, §4, §5, §6, §10, §8, §11

Compound | MIC C. albicans [1] [µg/mL] | MFC C. albicans [2] [µg/mL] | MIC A. Nidulans [3] [µg/mL] | MIC S. serevisiae [4] [µg/mL] | MIC [1] [µg/mL] | MFC [2] [µg/mL] | MIC [3] [µg/mL] | MIC [4] [µg/mL]
3,5-dichloro-2-hydroxybenzaldehyde-N-(3-chloro-2-pyrazinyl)hydrazine [(16)] | 8 | > 128 | 128 | 8 | – | – | – | –
COc1nccnc1N/N=C/c1cc(Cl)cc(Cl)c1O [(1), 3,5-dichloro-2-hydroxybenzaldehyde-N-(3-methoxy-2-pyrazinyl)hydrazone] | – | – | – | – | 1 (≈ 3.19 µM) | > 128 | 2 (≈ 6.39 µM) | 1 (≈ 3.19 µM)
COc1nccnc1NN=Cc1cc(Cl)ccc1O [(2)] | – | – | – | – | 1 (≈ 3.59 µM) | > 128 | 2 (≈ 7.18 µM) | 1 (≈ 3.59 µM)
COc1nccnc1NN=Cc1cccc(F)c1O [(3)] | – | – | – | – | 0.5 (≈ 1.91 µM) | > 128 | 2 (≈ 7.63 µM) | 1 (≈ 3.81 µM)
COc1nccnc1NN=Cc1ccccc1O [(4)] | – | – | – | – | 1 (≈ 4.09 µM) | > 128 | 2 (≈ 8.19 µM) | 1 (≈ 4.09 µM)
COc1nccnc1N/N=C/c1ccccn1 [(10)] | – | – | – | – | 2 (≈ 8.72 µM) | > 128 | 2 (≈ 8.72 µM) | 1 (≈ 4.36 µM)
CCOc1cccc(C=NNc2nccnc2OC)c1O [(11), 3-ethoxy-2-hydroxybenzaldehyde-N-(3-methoxy-2-pyrazinyl)hydrazone] | – | – | – | – | 2 (≈ 6.94 µM) | > 128 | 2 (≈ 6.94 µM) | 1 (≈ 3.47 µM)
COc1nccnc1NN=Cc1cccc([N+](=O)[O-])c1O [(12), 2-hydroxy-3-nitrobenzaldehyde-N-(3-methoxy-2-pyrazinyl)hydrazone] | – | – | – | – | 4 (≈ 13.8 µM) | > 128 | 8 (≈ 27.7 µM) | 4 (≈ 13.8 µM)
COc1ccc(C=NNc2nccnc2OC)c(O)c1 [(13), 2-hydroxy-4-methoxybenzaldehyde-N-(3-methoxy-2-pyrazinyl)hydrazone] | – | – | – | – | 1 (≈ 3.65 µM) | > 128 | 4 (≈ 14.6 µM) | 0.5 (≈ 1.82 µM)
COc1cc(Br)cc(C=NNc2nccnc2OC)c1O [(14), 5-bromo-2-hydroxy-3-methoxybenzaldehyde-N-(3-methoxy-2-pyrazinyl)hydrazone] | – | – | – | – | 0.5 (≈ 1.42 µM) | > 128 | 1 (≈ 2.83 µM) | 0.5 (≈ 1.42 µM)
COc1ccc(Br)c(C=NNc2nccnc2OC)c1O [(15), 6-bromo-2-hydroxy-3-methoxybenzaldehyde-N-(3-methoxy-2-pyrazinyl)hydrazone] | – | – | – | – | 1 (≈ 2.83 µM) | > 128 | 8 (≈ 22.7 µM) | 1 (≈ 2.83 µM)
Oc1c(Cl)cc(Cl)cc1/C=N/NC(=S)Nc1cc(C(F)(F)F)cc(C(F)(F)F)c1 [(35), N-[3,5bis(trifluoromethyl)phenyl]-2-[(E)-(3,5-dichloro-2-hydroxyphenyl)methylidene]-1-hydrazonecarbothioamide] | – | – | – | – | 2 (≈ 4.2 µM) | > 128 | 4 (≈ 8.4 µM) | 2 (≈ 4.2 µM)
Oc1ccccc1/C=N/NC(=S)Nc1cccc(F)c1 [(40)] | – | – | – | – | 32 (≈ 111 µM) | – | > 128 | 2 (≈ 6.91 µM)
S=C(N/N=C/c1ccccn1)Nc1ccccc1 [(41)] | – | – | – | – | > 128 | – | > 128 | > 128
COC(=O)c1ccc(COc2ccc(/C=N/NC(=S)Nc3cccc(C(F)(F)F)c3)c(O)c2)cc1 [(43)] | – | – | – | – | 0.5 (≈ 0.993 µM) | – | 0.25 (≈ 0.497 µM) | 0.5 (≈ 0.993 µM)
Oc1cc(OCc2ccccc2)ccc1/C=N/NC(=S)Nc1ccc(Cl)cc1 [(45), N-[(4-chloro-phenyl)]-2-[(E)-(4-benzyloxy-2-hydroxyphenyl)methylidene]-1-hydrazonecarbothiamide] | – | – | – | – | 1 (≈ 2.43 µM) | – | 0.5 (≈ 1.21 µM) | 0.5 (≈ 1.21 µM)
COC(=O)c1ccc(COc2ccc(/C=N/NC(=S)Nc3ccc(Cl)cc3)c(O)c2)cc1 [(46)] | – | – | – | – | 1 (≈ 2.13 µM) | – | 0.25 (≈ 0.532 µM) | 0.25 (≈ 0.532 µM)
O=C(O)c1ccc(COc2ccc(/C=N/NC(=S)Nc3ccc(Cl)cc3)c(O)c2)cc1 [(47), N-[(4-chloro-phenyl)]-2-[(E)-(4-carboxyl-benzyloxy-2-hydroxyphenyl)methylidene]-1-hydrazonecarbothiamide] | – | – | – | – | 2 (≈ 4.39 µM) | – | 0.5 (≈ 1.1 µM) | 1 (≈ 2.19 µM)
Cc1cc(C)cc(NC(=S)N/N=C/c2ccc(OCc3ccccc3)cc2O)c1 [(50)] | 1 (≈ 2.47 µM) | – | 0.5 (≈ 1.23 µM) | 0.5 (≈ 1.23 µM) | – | – | – | –
O=S(=O)(c1ccc(NC(=S)N/N=C/c2ccc(OCc3ccccc3)cc2O)cc1)N1CCCCC1 [(51)] | 16 (≈ 30.5 µM) | – | 1 (≈ 1.91 µM) | 0.5 (≈ 0.953 µM) | – | – | – | –
N-[(3-trifluoromethyl)phenyl)]-2-[(E)-(4-allyl-phenyl)-benzyloxy-2-hydroxyphenyl)methylidene]-1-hydrazonecarbothiamide [(44)] | 8 | – | 2 | 2 | – | – | – | –
